Results reported in PubChem BioAssay (NCI).
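Protocol summary: plate cells (96-well), add compound at 5 concentrations, incubate 48 h, interpolate endpoints linearly. TGI: total growth inhibition.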

What was measured:
Assay in all cases: NCI anticancer screen, dose series, 48 h
786-0 renal = test system: 786-0 renal
A498 renal = test system: A498 renal
A549 NSCLC = test system: A549 NSCLC
ACHN renal = test system: ACHN renal
CAKI-1 renal = test system: CAKI-1 renal
CCRF-CEM leukemia = test system: CCRF-CEM leukemia
COLO 205 colon = test system: COLO 205 colon
DLD-1 colon = test system: DLD-1 colon
DMS 273 small cell lung = test system: DMS 273 small cell lung
HCC-2998 colon = test system: HCC-2998 colon
HCT-116 colon = test system: HCT-116 colon
HCT-15 colon = test system: HCT-15 colon
HL-60(TB) leukemia = test system: HL-60(TB) leukemia
HOP-18 NSCLC = test system: HOP-18 NSCLC
HOP-62 NSCLC = test system: HOP-62 NSCLC
HOP-92 NSCLC = test system: HOP-92 NSCLC
HT29 colon = test system: HT29 colon
IGROV1 ovarian = test system: IGROV1 ovarian
K-562 leukemia = test system: K-562 leukemia
KM12 colon = test system: KM12 colon
LOX IMVI melanoma = test system: LOX IMVI melanoma
LXFL 529 NSCLC = test system: LXFL 529 NSCLC
M14 melanoma = test system: M14 melanoma
M19-MEL melanoma = test system: M19-MEL melanoma
MALME-3M melanoma = test system: MALME-3M melanoma
MOLT-4 leukemia = test system: MOLT-4 leukemia
NCI-H23 lung = test system: NCI-H23 lung
NCI-H460 lung = test system: NCI-H460 lung
NCI-H522 lung = test system: NCI-H522 lung
OVCAR-3 ovarian = test system: OVCAR-3 ovarian
OVCAR-4 ovarian = test system: OVCAR-4 ovarian
OVCAR-5 ovarian = test system: OVCAR-5 ovarian
OVCAR-8 ovarian = test system: OVCAR-8 ovarian
RPMI-8226 leukemia = test system: RPMI-8226 leukemia
RXF 393 renal = test system: RXF 393 renal
SF-268 CNS = test system: SF-268 CNS
SF-295 CNS = test system: SF-295 CNS
SF-539 CNS = test system: SF-539 CNS
SK-MEL-28 melanoma = test system: SK-MEL-28 melanoma
SK-MEL-5 melanoma = test system: SK-MEL-5 melanoma
SN12C renal = test system: SN12C renal
SNB-19 CNS = test system: SNB-19 CNS
SNB-78 CNS = test system: SNB-78 CNS
SR leukemia = test system: SR leukemia
SW-620 colon = test system: SW-620 colon
TK-10 renal = test system: TK-10 renal
U251 CNS = test system: U251 CNS
UACC-257 melanoma = test system: UACC-257 melanoma
UACC-62 melanoma = test system: UACC-62 melanoma
XF 498 CNS = test system: XF 498 CNS
BT-549 breast = test system: BT-549 breast
DMS 114 small cell lung = test system: DMS 114 small cell lung
DU-145 prostate = test system: DU-145 prostate
EKVX NSCLC = test system: EKVX NSCLC
HS 578T breast = test system: HS 578T breast
KM20L2 colon = test system: KM20L2 colon
MCF7 breast = test system: MCF7 breast
MDA-MB-435 = test system: MDA-MB-435
MDA-N = test system: MDA-N
NCI-H226 lung = test system: NCI-H226 lung
NCI/ADR-RES ovarian = test system: NCI/ADR-RES ovarian
PC-3 prostate = test system: PC-3 prostate
SK-MEL-2 melanoma = test system: SK-MEL-2 melanoma
SK-OV-3 ovarian = test system: SK-OV-3 ovarian
SNB-75 CNS = test system: SNB-75 CNS
T-47D breast = test system: T-47D breast
UO-31 renal = test system: UO-31 renal

COC1OC2COC(c3ccccc3)OC2C(O)C1Br (centres undefined)
TGI (786-0 renal): > 100 µM | TGI (A498 renal): > 100 µM | TGI (A549 NSCLC): > 100 µM | TGI (ACHN renal): > 100 µM | TGI (CAKI-1 renal): > 100 µM | TGI (CCRF-CEM leukemia): > 100 µM | TGI (COLO 205 colon): > 100 µM | TGI (DLD-1 colon): > 100 µM | TGI (DMS 273 small cell lung): > 100 µM | TGI (HCC-2998 colon): > 100 µM | TGI (HCT-116 colon): > 100 µM | TGI (HCT-15 colon): > 100 µM | TGI (HL-60(TB) leukemia): > 100 µM | TGI (HOP-18 NSCLC): > 100 µM | TGI (HOP-62 NSCLC): > 100 µM | TGI (HOP-92 NSCLC): > 100 µM | TGI (HT29 colon): > 100 µM | TGI (IGROV1 ovarian): > 100 µM | TGI (K-562 leukemia): > 100 µM | TGI (KM12 colon): > 100 µM | TGI (LOX IMVI melanoma): > 100 µM | TGI (LXFL 529 NSCLC): > 100 µM | TGI (M14 melanoma): > 100 µM | TGI (M19-MEL melanoma): > 100 µM | TGI (MALME-3M melanoma): > 100 µM | TGI (MOLT-4 leukemia): > 100 µM | TGI (NCI-H23 lung): > 100 µM | TGI (NCI-H460 lung): > 100 µM | TGI (NCI-H522 lung): > 100 µM | TGI (OVCAR-3 ovarian): > 100 µM | TGI (OVCAR-4 ovarian): > 100 µM | TGI (OVCAR-5 ovarian): > 100 µM | TGI (OVCAR-8 ovarian): > 100 µM | TGI (RPMI-8226 leukemia): > 100 µM | TGI (RXF 393 renal): > 100 µM | TGI (SF-268 CNS): > 100 µM | TGI (SF-295 CNS): > 100 µM | TGI (SF-539 CNS): > 100 µM | TGI (SK-MEL-28 melanoma): > 100 µM | TGI (SK-MEL-5 melanoma): > 100 µM | TGI (SN12C renal): > 100 µM | TGI (SNB-19 CNS): > 100 µM | TGI (SNB-78 CNS): > 100 µM | TGI (SR leukemia): > 100 µM | TGI (SW-620 colon): > 100 µM | TGI (TK-10 renal): > 100 µM | TGI (U251 CNS): > 100 µM | TGI (UACC-257 melanoma): > 100 µM | TGI (UACC-62 melanoma): > 100 µM | TGI (XF 498 CNS): > 100 µM

COc1ccc(CCNCCCC2c3ccccc3-c3ccccc32)cc1OC
TGI (786-0 renal): 28.9 µM | TGI (A498 renal): 19.5 µM | TGI (A549 NSCLC): 31.4 µM | TGI (ACHN renal): 29.6 µM | TGI (BT-549 breast): 35.6 µM | TGI (CAKI-1 renal): 33.4 µM | TGI (CCRF-CEM leukemia): 49 µM | TGI (COLO 205 colon): 3.4 µM | TGI (DLD-1 colon): 30.5 µM | TGI (DMS 114 small cell lung): 20.3 µM | TGI (DMS 273 small cell lung): 21.2 µM | TGI (DU-145 prostate): 28.9 µM | TGI (EKVX NSCLC): 30.8 µM | TGI (HCC-2998 colon): 3.88 µM | TGI (HCT-116 colon): 25.8 µM | TGI (HCT-15 colon): 29 µM | TGI (HL-60(TB) leukemia): 47.7 µM | TGI (HOP-18 NSCLC): 30.6 µM | TGI (HOP-62 NSCLC): 30 µM | TGI (HOP-92 NSCLC): 18.2 µM | TGI (HS 578T breast): 39.8 µM | TGI (HT29 colon): 16.1 µM | TGI (IGROV1 ovarian): 26.8 µM | TGI (K-562 leukemia): 49.2 µM | TGI (KM12 colon): 30.4 µM | TGI (KM20L2 colon): 12.4 µM | TGI (LOX IMVI melanoma): 28.7 µM | TGI (LXFL 529 NSCLC): 27.5 µM | TGI (M14 melanoma): 11.8 µM | TGI (M19-MEL melanoma): 24.5 µM | TGI (MALME-3M melanoma): 27 µM | TGI (MCF7 breast): 20.3 µM | TGI (MDA-MB-435): 28.3 µM | TGI (MDA-N): 30.8 µM | TGI (MOLT-4 leukemia): 41.8 µM | TGI (NCI-H226 lung): 31.4 µM | TGI (NCI-H23 lung): 28.9 µM | TGI (NCI-H460 lung): 18.3 µM | TGI (NCI-H522 lung): 30.1 µM | TGI (NCI/ADR-RES ovarian): 33.2 µM | TGI (OVCAR-3 ovarian): 31.2 µM | TGI (OVCAR-4 ovarian): 30.5 µM | TGI (OVCAR-5 ovarian): 33.4 µM | TGI (OVCAR-8 ovarian): 41.8 µM | TGI (PC-3 prostate): 29.9 µM | TGI (RPMI-8226 leukemia): 22 µM | TGI (RXF 393 renal): 26.1 µM | TGI (SF-268 CNS): 30.3 µM | TGI (SF-295 CNS): 29.2 µM | TGI (SF-539 CNS): 30.8 µM | TGI (SK-MEL-2 melanoma): 17.9 µM | TGI (SK-MEL-28 melanoma): 23.1 µM | TGI (SK-MEL-5 melanoma): 23.3 µM | TGI (SK-OV-3 ovarian): 32.9 µM | TGI (SN12C renal): 28.7 µM | TGI (SNB-19 CNS): 31.8 µM | TGI (SNB-75 CNS): 27.2 µM | TGI (SNB-78 CNS): 32.1 µM | TGI (SR leukemia): 24.2 µM | TGI (SW-620 colon): 20.4 µM | TGI (T-47D breast): 34.3 µM | TGI (TK-10 renal): 27.7 µM | TGI (U251 CNS): 26.2 µM | TGI (UACC-257 melanoma): 28.1 µM | TGI (UACC-62 melanoma): 30.3 µM | TGI (UO-31 renal): 24.4 µM | TGI (XF 498 CNS): 28.2 µM

CCOC(OC1=C(C#N)CCCC1)C(C)[Se]c1ccccc1 (centres undefined)
TGI (786-0 renal): 31.4 µM | TGI (A498 renal): > 100 µM | TGI (A549 NSCLC): > 100 µM | TGI (ACHN renal): > 100 µM | TGI (CAKI-1 renal): > 100 µM | TGI (CCRF-CEM leukemia): 65 µM | TGI (COLO 205 colon): > 100 µM | TGI (DLD-1 colon): > 100 µM | TGI (DMS 114 small cell lung): 15.4 µM | TGI (DMS 273 small cell lung): 33.7 µM | TGI (EKVX NSCLC): > 100 µM | TGI (HCC-2998 colon): > 100 µM | TGI (HCT-116 colon): > 100 µM | TGI (HCT-15 colon): > 100 µM | TGI (HL-60(TB) leukemia): 49.4 µM | TGI (HOP-18 NSCLC): > 100 µM | TGI (HOP-62 NSCLC): > 100 µM | TGI (HOP-92 NSCLC): 67.3 µM | TGI (HT29 colon): > 100 µM | TGI (IGROV1 ovarian): > 100 µM | TGI (K-562 leukemia): > 100 µM | TGI (KM12 colon): > 100 µM | TGI (KM20L2 colon): > 100 µM | TGI (LOX IMVI melanoma): 30.5 µM | TGI (LXFL 529 NSCLC): > 100 µM | TGI (M14 melanoma): > 100 µM | TGI (M19-MEL melanoma): 96.5 µM | TGI (MALME-3M melanoma): > 100 µM | TGI (MOLT-4 leukemia): 79.9 µM | TGI (NCI-H226 lung): > 100 µM | TGI (NCI-H23 lung): 39.4 µM | TGI (NCI-H460 lung): > 100 µM | TGI (NCI-H522 lung): 30.8 µM | TGI (OVCAR-3 ovarian): > 100 µM | TGI (OVCAR-4 ovarian): 47.6 µM | TGI (OVCAR-5 ovarian): > 100 µM | TGI (OVCAR-8 ovarian): 63.9 µM | TGI (RPMI-8226 leukemia): 84 µM | TGI (RXF 393 renal): 29.8 µM | TGI (SF-268 CNS): 46.6 µM | TGI (SF-295 CNS): > 100 µM | TGI (SF-539 CNS): 38 µM | TGI (SK-MEL-2 melanoma): > 100 µM | TGI (SK-MEL-28 melanoma): 71.6 µM | TGI (SK-MEL-5 melanoma): 55.6 µM | TGI (SK-OV-3 ovarian): > 100 µM | TGI (SN12C renal): 89.9 µM | TGI (SNB-19 CNS): > 100 µM | TGI (SNB-75 CNS): > 100 µM | TGI (SNB-78 CNS): > 100 µM | TGI (SR leukemia): 63.8 µM | TGI (TK-10 renal): > 100 µM | TGI (U251 CNS): 32 µM | TGI (UACC-257 melanoma): > 100 µM | TGI (UACC-62 melanoma): 63.2 µM | TGI (UO-31 renal): > 100 µM | TGI (XF 498 CNS): 57 µM
